For one compound, IC50 results are on record in patent US6455559B1, “Phenylacetamido-pyrazole derivatives, process for their preparation and their use as antitumor agents” (Pharmacia Italia S.p.A., priority 2001, dated 2002).

As usually defined, the IC50 is the point on the concentration scale where inhibition reaches its midpoint.

Molecules are shown by their SMILES.

For this assay, the target named is cdk2/Cyclin A (Homo sapiens, UniProt P24941). Kind of assay: inhibition assay of cdk2/Cyclin A activity (MultiScreen-PH phosphocellulose filter plate, histone H1, P33γ-ATP). Format: biochemical. The conditions noted are these: tested against cdk2/A; read-out: inhibitory activity, expressed as IC50.

Protocol: The inhibiting activity of putative cdk/cyclin inhibitors and the potency of selected compounds was determined through a method of assay based on the use of the MultiScreen-PH 96 well plate (Millipore), in which phosphocellulose filter paper was placed at each well bottom allowing binding of positive charged substrate after a washing/filtration step.
When a radioactivity labelled phosphate moiety was transferred by the ser/threo kinase to the filter-bound histone, light emitted was measured in a scintillation counter.
The inhibition assay of cdk2/Cyclin A activity was performed according to the following protocol.
Kinase reaction: 1.5 μM histone H1 substrate, 25 μM ATP (0.5 uCi P33γ-ATP), 100 ng Cyclin A/cdk2 complex, 10 μM inhibitor in a final volume of 100 μl buffer (TRIS HCl 10 mM pH 7.5, MgCl2 10 mM, 7.5 mM DTT) were added to each well of a 96 U bottom well plate. After 10 minutes at 37° C. incubation, reaction was stopped by 20 μl EDTA 120 mM.
Capture: 100 μl were transferred from each well MultiScreen plate, to allow substrate binding phosphocellulose filter. […]
Detection: filters were allowed to dry at 37° C., then 100 μl/well scintillant were added and 33P labelled histone H1 was detected by radioactivity counting in the Top-Count instrument.
Results: data were analysed and expressed as % inhibition referred to total activity of enzyme (=100%).

For `C[C@H](C(=O)Nc1cc(C2CC2)[nH]n1)c1ccc(N2CCOC2=O)cc1` [(2S)-N-(5-cyclopropyl-1H-pyrazol-3-yl)-2-[4-(2-oxo-1,3-oxazolidin-3-yl)phenyl]propanamide], the half-maximal inhibitory concentration (IC50) came to 8 nM.
